The source of these data is ChEMBL document CHEMBL4371049, “Semi-synthesis and anti-tumor activity of novel 25-OCH3-PPD derivatives incorporating aromatic moiety” (Bioorg Med Chem Lett, 2019).

Structures are written as SMILES.

Assay type in all cases: functional, cell-based
One assay has as its system PC-3. The assay can be described thus: Antiproliferative activity against human PC3 cells after 48 hrs by MTT assay. Conditions: PC-3, 48 h.
Another assay concerns HepG2. Put plainly: Antiproliferative activity against human HepG2 cells after 48 hrs by MTT assay. As to conditions: HepG2, 48 h.
The next assay deals with BGC-823. The assay can be described thus: Antiproliferative activity against human BGC823 cells after 48 hrs by MTT assay. As to conditions: BGC-823, 48 h.
A further assay has as its system DU-145. Put plainly: Antiproliferative activity against human DU145 cells after 48 hrs by MTT assay. Conditions: DU-145, 48 h.
The next assay relates to MCF7. The assay can be described thus: Antiproliferative activity against human MCF7 cells after 48 hrs by MTT assay. Conditions: MCF7, 48 h.

On to `COC(C)(C)CCC[C@@](C)(O)[C@H]1CC[C@]2(C)[C@@H]1[C@H](OC(=O)c1ccc(Br)cc1)C[C@@H]1[C@@]3(C)CC[C@H](OC(=O)c4ccc(Br)cc4)C(C)(C)[C@@H]3CC[C@]12C`, for which the IC50 in the assay on PC-3, with HepG2, in the assay on BGC-823, with DU-145 and in the assay with MCF7 was above 50 µM in each case.
`COC(C)(C)CCC[C@@](C)(O)[C@H]1CC[C@]2(C)[C@@H]1[C@H](OC(=O)c1ccccc1I)C[C@@H]1[C@@]3(C)CC[C@H](OC(=O)c4ccccc4I)C(C)(C)[C@@H]3CC[C@]12C`: the concentration for half-maximal inhibition (IC50) in the assay with PC-3, with HepG2, with BGC-823, in the assay with DU-145 and with MCF7 was above 50 µM throughout.
Regarding `COC(C)(C)CCC[C@@](C)(O)[C@H]1CC[C@]2(C)[C@@H]1[C@H](OC(=O)/C=C/c1ccc(Cl)cc1)C[C@@H]1[C@@]3(C)CC[C@H](OC(=O)/C=C/c4ccc(Cl)cc4)C(C)(C)[C@@H]3CC[C@]12C`, the half-inhibitory concentration (IC50) in the assay on PC-3, in the assay on HepG2, in the assay with BGC-823, with DU-145 and with MCF7 was above 50 µM each time.
For `COC(C)(C)CCC[C@@](C)(O)[C@H]1CC[C@]2(C)[C@@H]1[C@H](OC(=O)c1ccccc1)C[C@@H]1[C@@]3(C)CC[C@H](O)C(C)(C)[C@@H]3CC[C@]12C`, the IC50 in the assay with PC-3, in the assay with HepG2, in the assay with BGC-823, in the assay with DU-145 and in the assay with MCF7 was above 50 µM each time.
With `COC(C)(C)CCC[C@@](C)(O)[C@H]1CC[C@]2(C)[C@@H]1[C@H](O)C[C@@H]1[C@@]3(C)CC[C@H](OC(=O)c4ccc([N+](=O)[O-])cc4)C(C)(C)[C@@H]3CC[C@]12C`, the IC50 stood at 16.7 µM in the assay on PC-3; 20.6 µM in the assay with HepG2; 17.4 µM in the assay with BGC-823; 19.2 µM with DU-145; 25.3 µM with MCF7.
On to `COC(C)(C)CCC[C@@](C)(O)[C@H]1CC[C@]2(C)[C@@H]1[C@H](O)C[C@@H]1[C@@]3(C)CC[C@H](OC(=O)c4ccc(F)cc4F)C(C)(C)[C@@H]3CC[C@]12C`, for which the IC50 with PC-3 amounted to 11.4 µM; in the assay on HepG2, 5.8 µM; with BGC-823 it was 7.1 µM; in the assay on DU-145, 6.7 µM; in the assay with MCF7, 4.3 µM.
For the compound `COC(C)(C)CCC[C@@](C)(O)[C@H]1CC[C@]2(C)[C@@H]1[C@H](O)C[C@@H]1[C@@]3(C)CC[C@H](OC(=O)c4cc(Br)cc(Br)c4)C(C)(C)[C@@H]3CC[C@]12C`, the IC50 in the assay with PC-3 amounted to 38.4 µM; in the assay on HepG2, 43.6 µM; in the assay on BGC-823, 36.1 µM; in the assay with DU-145, 22.6 µM; with MCF7 it was 41.7 µM.
In the same order, the values of `COC(C)(C)CCC[C@@](C)(O)[C@H]1CC[C@]2(C)[C@@H]1[C@H](O)C[C@@H]1[C@@]3(C)CC[C@H](OC(=O)c4ccc(Br)cc4)C(C)(C)[C@@H]3CC[C@]12C` are 35.7 µM, 25.7 µM, 26.2 µM, 23.1 µM and 17.6 µM.
Take `COC(C)(C)CCC[C@@](C)(O)[C@H]1CC[C@]2(C)[C@@H]1[C@H](OC(=O)c1cc(F)ccc1Br)C[C@@H]1[C@@]3(C)CC[C@H](OC(=O)c4cc(F)ccc4Br)C(C)(C)[C@@H]3CC[C@]12C`: the IC50 in the assay on PC-3, with HepG2, in the assay on BGC-823, in the assay on DU-145 and in the assay on MCF7 was above 50 µM throughout.
Take `COC(C)(C)CCC[C@@](C)(O)[C@H]1CC[C@]2(C)[C@@H]1[C@H](OC(=O)c1ccc([N+](=O)[O-])cc1)C[C@@H]1[C@@]3(C)CC[C@H](OC(=O)c4ccc([N+](=O)[O-])cc4)C(C)(C)[C@@H]3CC[C@]12C`: the IC50 in the assay on PC-3, in the assay on HepG2, in the assay on BGC-823, in the assay with DU-145 and with MCF7 was above 50 µM each time.
As for `COC(C)(C)CCC[C@@](C)(O)[C@H]1CC[C@]2(C)[C@@H]1[C@H](O)C[C@@H]1[C@@]3(C)CC[C@H](OC(=O)c4ccccc4)C(C)(C)[C@@H]3CC[C@]12C`, the IC50 is 30.4 µM in the assay with PC-3; 17.8 µM in the assay with HepG2; 35.1 µM in the assay on BGC-823; 23.5 µM in the assay on DU-145; 18.9 µM in the assay on MCF7.
As for `COC(C)(C)CCC[C@@](C)(O)[C@H]1CC[C@]2(C)[C@@H]1[C@H](O)C[C@@H]1[C@@]3(C)CC[C@H](OC(=O)c4ccccc4Cl)C(C)(C)[C@@H]3CC[C@]12C`, the IC50 in the assay on PC-3 was found to be 22 µM; in the assay with HepG2, 19.2 µM; with BGC-823 it was 28.1 µM; with DU-145, 18.5 µM; with MCF7, 15.6 µM.
In the same order, the values of `COC(C)(C)CCC[C@@](C)(O)[C@H]1CC[C@]2(C)[C@@H]1[C@H](OC(=O)c1ccc(I)cc1)C[C@@H]1[C@@]3(C)CC[C@H](OC(=O)c4ccc(I)cc4)C(C)(C)[C@@H]3CC[C@]12C` are above 50 µM, above 50 µM, above 50 µM, above 50 µM and above 50 µM.
Consider `COC(C)(C)CCC[C@@](C)(O)[C@H]1CC[C@]2(C)[C@@H]1[C@H](OC(=O)c1cc(I)ccc1Cl)C[C@@H]1[C@@]3(C)CC[C@H](OC(=O)c4cc(I)ccc4Cl)C(C)(C)[C@@H]3CC[C@]12C`, for which the IC50 in the assay on PC-3, in the assay with HepG2, in the assay on BGC-823, in the assay with DU-145 and in the assay with MCF7 was above 50 µM throughout.
As for `COC(C)(C)CCC[C@@](C)(O)[C@H]1CC[C@]2(C)[C@@H]1[C@H](O)C[C@@H]1[C@@]3(C)CC[C@H](OC(=O)/C=C/c4ccc(Cl)cc4)C(C)(C)[C@@H]3CC[C@]12C`, the IC50 with PC-3 was 23.5 µM; in the assay with HepG2, 26.7 µM; in the assay with BGC-823, 25.8 µM; in the assay with DU-145, 33.1 µM; in the assay on MCF7 it was 20.8 µM.
As to `COC(C)(C)CCC[C@@](C)(O)[C@H]1CC[C@]2(C)[C@@H]1[C@H](OC(=O)/C=C/c1ccc(F)cc1)C[C@@H]1[C@@]3(C)CC[C@H](O)C(C)(C)[C@@H]3CC[C@]12C`, the IC50 in the assay with PC-3, in the assay with HepG2, in the assay on BGC-823, in the assay with DU-145 and in the assay on MCF7 was above 50 µM each time.
Turning to `COC(C)(C)CCC[C@@](C)(O)[C@H]1CC[C@]2(C)[C@@H]1[C@H](OC(=O)c1ccc(Br)cc1)C[C@@H]1[C@@]3(C)CC[C@H](O)C(C)(C)[C@@H]3CC[C@]12C`, the IC50 with PC-3, in the assay with HepG2, in the assay on BGC-823, with DU-145 and with MCF7 was above 50 µM throughout.
Regarding `COC(C)(C)CCC[C@@](C)(O)[C@H]1CC[C@]2(C)[C@@H]1[C@H](OC(=O)c1ccccc1[N+](=O)[O-])C[C@@H]1[C@@]3(C)CC[C@H](OC(=O)c4ccccc4[N+](=O)[O-])C(C)(C)[C@@H]3CC[C@]12C`, the IC50 is above 50 µM in the assay on PC-3; above 50 µM in the assay with HepG2; 48.6 µM in the assay on BGC-823; 29.7 µM with DU-145; 37.2 µM in the assay with MCF7.
For the compound `COC(C)(C)CCC[C@@](C)(O)[C@H]1CC[C@]2(C)[C@@H]1[C@H](O)C[C@@H]1[C@@]3(C)CC[C@H](OC(=O)c4cc(I)ccc4Cl)C(C)(C)[C@@H]3CC[C@]12C`, the IC50 was above 50 µM in the assay on PC-3; 28.8 µM in the assay with HepG2; above 50 µM in the assay with BGC-823; 30.7 µM in the assay on DU-145; 29.4 µM with MCF7.
For the compound `COC(C)(C)CCC[C@@](C)(O)[C@H]1CC[C@]2(C)[C@@H]1[C@H](OC(=O)c1ccc([N+](=O)[O-])cc1)C[C@@H]1[C@@]3(C)CC[C@H](O)C(C)(C)[C@@H]3CC[C@]12C`, the IC50 in the assay on PC-3, in the assay on HepG2, with BGC-823, in the assay on DU-145 and in the assay with MCF7 was above 50 µM each time.
Take `COC(C)(C)CCC[C@@](C)(O)[C@H]1CC[C@]2(C)[C@@H]1[C@H](O)C[C@@H]1[C@@]3(C)CC[C@H](OC(=O)c4ccccc4C)C(C)(C)[C@@H]3CC[C@]12C`: the IC50 is above 50 µM in the assay on PC-3; above 50 µM in the assay with HepG2; above 50 µM with BGC-823; 44.3 µM with DU-145; 37.6 µM in the assay with MCF7.
